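Assay format: 96-well plates, 48-hour exposure. The concentration for full growth arrest is given as TGI.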
How the values were obtained:
Experiment in all cases: inhibition of tumour cell growth, NCI panel, 48 h
[1] = tested on: A549 NSCLC
[2] = tested on: DU-145 prostate
[3] = tested on: SK-OV-3 ovarian
[4] = tested on: SF-539 CNS
[5] = tested on: SF-295 CNS
[6] = tested on: MALME-3M melanoma
[7] = tested on: IGROV1 ovarian
[8] = tested on: PC-3 prostate
[9] = tested on: RPMI-8226 leukemia
[10] = tested on: MDA-N
[11] = tested on: HCT-15 colon

Structure (SMILES) | TGI [1] | TGI [2] | TGI [3] | TGI [4] | TGI [5] | TGI [6] | TGI [7] | TGI [8] | TGI [9] | TGI [10] | TGI [11]
C=C1CC(CNc2cc(Cl)nc(N)n2)C1 | > 100 µM | > 100 µM | > 100 µM | > 100 µM | > 100 µM | > 100 µM | > 100 µM | > 100 µM | > 100 µM | > 100 µM | > 100 µM
CC1(C)OC[C@@]2([C@@H]3CC[C@@H](C3)C2(C)C)N1O | > 100 µM | > 100 µM | > 100 µM | > 100 µM | > 100 µM | > 100 µM | > 100 µM | > 100 µM | > 100 µM | > 100 µM | > 100 µM
NNC(=O)CCCCCCCC(=O)O | > 100 µM | > 100 µM | > 100 µM | > 100 µM | > 100 µM | > 100 µM | > 100 µM | > 100 µM | > 100 µM | > 100 µM | > 100 µM
COC(=O)c1ccc(NCC2=CC(=O)c3ccccc3C2=O)cc1 | 96.7 µM | 31.3 µM | 35.3 µM | 63.6 µM | 35.1 µM | 19.9 µM | 30.2 µM | 27.8 µM | > 26.5 µM | 26.6 µM | 33.1 µM
OCC1CCCCN1Cc1nc2ccc(Cl)cc2[nH]1 (configuration not stated) | > 100 µM | > 100 µM | > 100 µM | > 100 µM | > 100 µM | > 100 µM | > 100 µM | > 100 µM | > 100 µM | > 100 µM | > 100 µM
COc1cccc2c1C(=O)c1ccc3cc(CO)cc(O)c3c1C2=O | 2.76 µM | 3.31 µM | 8.61 µM | 1.44 µM | 7.44 µM | 0.202 µM | 3.33 µM | 1.17 µM | 5.1 µM | 0.352 µM | 1.17 µM
O=C(CN=C(CN(c1ccccc1)c1ccccc1)Oc1c([N+](=O)[O-])cc([N+](=O)[O-])cc1[N+](=O)[O-])N1CCNCC1 | > 100 µM | > 100 µM | > 100 µM | > 100 µM | > 100 µM | > 100 µM | > 100 µM | > 100 µM | > 100 µM | > 100 µM | > 100 µM
O=C(c1ccco1)N1CCN(C(=O)c2ccco2)C1=S | 35.5 µM | 7.99 µM | 40.8 µM | 11.2 µM | 35.8 µM | 23 µM | 27.4 µM | 17.5 µM | 7.31 µM | 22.6 µM | 26.3 µM
CCOC(=O)C1(Cc2ccccc2)CCN(C(=O)c2ccccc2)C2C1C2(Cl)Cl (configuration not stated) | > 100 µM | > 100 µM | > 100 µM | 38.5 µM | 77.2 µM | 51.5 µM | > 100 µM | 50.1 µM | 38.2 µM | 39.6 µM | > 100 µM
CC1(C)N=C(N)N=C(N)N1c1ccc(CCCCc2ccc(Cl)cc2Cl)cc1 | 14.7 µM | 17.3 µM | 24.7 µM | 8.74 µM | 22 µM | 16.8 µM | 10 µM | 3.27 µM | 19.2 µM | 2.67 µM | > 100 µM
Cc1[nH]n(-c2nc(O)c(C)c(=O)[nH]2)c(=O)c1CCO | > 100 µM | > 100 µM | > 100 µM | > 100 µM | > 100 µM | > 100 µM | > 100 µM | > 100 µM | > 100 µM | > 100 µM | > 100 µM
C/C=C/[C@@H]1O[C@H](CC#C[Si](C)(C)C)[C@@]2(C=O)C(C)=CC[C@H](C(C)C)[C@@H]12 | 64.5 µM | 51.8 µM | > 100 µM | 49.7 µM | 67.3 µM | 37.2 µM | 10.7 µM | 33.8 µM | 52.2 µM | 43.9 µM | 48.5 µM
CCOC(=O)c1cc2cc(CSc3ccccc3)ccc2oc1=O | > 100 µM | > 100 µM | > 100 µM | > 100 µM | > 100 µM | > 100 µM | > 100 µM | > 100 µM | > 100 µM | > 100 µM | > 100 µM
O=S(=O)(O)Nc1ccc(-c2nc3ccccc3s2)cc1Cl | > 100 µM | > 100 µM | > 100 µM | > 100 µM | > 100 µM | > 100 µM | > 100 µM | > 100 µM | > 100 µM | > 100 µM | > 100 µM
N#Cc1nc(Cc2ccccc2)oc1N | > 100 µM | > 100 µM | > 100 µM | > 100 µM | > 100 µM | > 100 µM | > 100 µM | > 100 µM | > 100 µM | > 100 µM | > 100 µM
CC1(C)OC2CN(C(=O)OCc3ccccc3)C(CO)C2O1 (configuration not stated) | > 100 µM | > 100 µM | > 100 µM | > 100 µM | > 100 µM | > 100 µM | > 100 µM | > 100 µM | > 100 µM | > 100 µM | > 100 µM
CNC=O | > 10000 µM | > 10000 µM | < 3980 µM | > 10000 µM | > 10000 µM | > 10000 µM | > 10000 µM | > 10000 µM | > 10000 µM | > 10000 µM | > 10000 µM

From PubChem BioAssay (NCI)
